Test results published in patent US4582824A, “Method for inhibiting activities of platelet activating factor” (Takeda Chemical Industries, Ltd., priority 1983, dated 1986).

Key:
[1] = system: PAF-induced respiratory (airway) stenosis; test: PAF-inhibiting activity in respiratory stenosis; format: in vivo, guinea pig (Hartley); settings: for suppression of the airway stenosis response by PAF: 2 minutes before PAF 0.3 μg/kg i.v.
Experimental: Male and female Hartley strain guinea pigs weighing about 400 g were used. Under urethane anesthesia (1.5 g/kg, i.p.), each animal was immobilized in supine position and one shank of a tracheal cannula (of 4-shank type) was inserted into the airway, with two of the remaining three shanks being connected to a Harvard Apparatus rodent respirator and the remaining one shank to a bronchospasm transducer (Ugo-basile Model 7020). At an air volume of 5 to 7 ml per cycle, an air supply frequency of 70 times/min. and a lung loading pressure of 10 cm H2 O, the volume of overflowing air was recorded through the transducer on a rectigraph (Rectigraph-8S, Sanei Sokki K.K.). After gallamine triethodide (1 mg/kg, i.v.) treatment, […] of histamine 2HCl was intravenously administered to examine the response of the animal. When 0.3 μg/kg of PAF was intravenously administered to control group intravenously pretreated with physiological saline, a miximum airway stenosis was noted after 30 minutes and the amount of stenosis taking a complete stenosis as 100% was 72.8±4.3 (mean±S.D., for 6 cases). The compound of Production Example 2, when intravenously administered 2 minutes before at the dose levels of 0.3 and 1 mg/kg, suppressed the above response by PAF by 49% and 82%, respectively.

[2] = system: circulatory shock due to PAF; test: Inhibitory activity against circulatory shock due to PAF in anesthetized dogs; format: in vivo, mongrel dogs
Experimental: Male and female mongrel dogs weighing 9 to 13 kg were used. Under pentobarital sodium ([…], i.v.) anesthesia and supportive respiration, a thoracotomy was performed at the left fourth interspace. The origin of the left coronary circumflex and the aortic arch were released, an electromagnetic probe was attached to each, and the coronary blood flow (CoF) and cardiac output (CO) were measured. Moreover, a polyethylene cannula was inserted from the apex of the heart into the left ventricle and the left ventricular pressure (LVP) was measured by means of a pressure transducer. In addition, its first-order differential dp/dt was determined by way of a differential circuit. The mean blood pressure (MBP) was continuously recorded on an ink-writing polygraph through a pressure transducer via a cannula inserted into the right femoral artery and the heart rate (HR) was similarly recorded via a tachometer driven by mean blood pressure pulse waves. PAF and the compound of Production Example 2 were respectively dissolved in physiological saline and administered via a cannula into the left femoral vein. After 1.0 μg/kg of PAF was intravenously administered and the respective parameters recovered to normal, the compound of Production Example 2 (10 mg/kg) was intravenously administered. After 10 minutes, 1.0 μg/kg of PAF was intravenously administered to estimate the anti-PAF activity of the compound of Production Example 2. All values are in percents relative to the values prior to PAF administration.

[3] = system: platelet aggregation; settings: compared with ADP and TXA2; cited from earlier work
[4] = system: respiratory stenosis; settings: compared with all the known compounds; cited from earlier work
[5] = system: PAF-induced platelet aggregation (washed PRP); test: Activity to inhibit PAF in platelet aggregation (washed PRP); format: cell-based, rabbit; settings: Oryctolagus cuniculus, test compound 3×10^-5 M, PAF 3×10^-7 M, 37° C., read-out: Inhibition rate
Experimental: Using an injection syringe containing a 3.15% solution of citric acid (in a ratio of 1 part per 9 parts of blood) as an anticoagulant, the blood was directly collected from a male rabbit. Then, at room temperature, the blood was centrifuged at 1,000 r.p.m. for 10 minutes to harvest a platelet rich plasma (PRP). This PRP was further centrifuged at 1,400 r.p.m. for 15 minutes to give a platelet pellet. The pellet was suspended in Ca^++ -free Tyrode solution (containing 0.25% of gelatin) to give a washed PRP. This washed PRP (250 μl) was stirred at 37° C. for 2 minutes, then 25 μl of a 0.2 to 0.5 mM Ca^++ solution was added, and the mixture was further stirred for 30 seconds. Then, the test compound was added to the above platelet preparation to a level of 3×10^-5 M. After stirring the mixture for 2 minutes, 3×10^-7 M of PAF was added. The degree of platelet aggregation was determined with a platelet aggregometer (Rika Denki). The activity of the test compound was estimated from the inhibition rate as compared with the maximum optical transmission (maximum aggregation) of control PRP by PAF.

[6] = system: endotoxin-induced blood pressure fall; test: Anti-endotoxin shock activity in rats; format: in vivo, rat (Sprague-Dawley); settings: 10 mg/kg i.v., 10 minutes before endotoxin 15 mg/kg i.v., mean ± SD
Experimental: Male Sprague-Dawley rats weighing 500 to 600 g were used under pentobarbital sodium (50 mg/kg, i.v.) anesthesia. A cannula was inserted into the femoral artery and secured in position for measurement of blood pressure and another cannula into the femoral vein for administration of a solution of the drug. The blood pressure was measured via a pressure transducer and recorded on a polygraph. For a control group, a suspension of endotoxin (Lipopolysaccharide W. E. coli 0111: B4, Wako Pure Chemical) in physiological saline was administered into the femoral vein and the maximum hypotensive response occurring 3 to 5 minutes after administration was recorded. On the other hand, for the administration of 3-(N-n-octadecylcarbamoyloxy)-2-methoxypropyl 2-thiazolioethyl phosphate [hereinafter, compound (IA)], the compound (IA) was dissolved in physiological saline and administered into the femoral vein in a dose of 10 mg/kg. Ten (10) minutes after the administration of (IA), endotoxin was similarly administered and the maximum hypotensive response was recorded. The anti-endotoxin shock activity of the test compound was estimated from the difference in blood pressure response between the (IA) treatment group and the non-(IA)treatment group.

[7] = system: endotoxin-induced death; test: Preventive effect against endotoxin-induced death in mice; format: in vivo, mouse (ICR-Jcl); settings: 10 mg/kg i.v. + endotoxin 15 mg/kg i.v.
Experimental: Male mice of ICR-Jcl strain, aged 5 weeks and with a body weight of about 30 g, were used in groups of 7 individuals. For the control group, 15 mg/kg of endotoxin was suspended in 0.1 ml/10 g of physiological saline and injected into the tail vein. For the compound (IA) treatment group, 10 mg/kg of the compound (IA) and 15 mg/kg of endotoxin were suspended in 0.1 ml/10 g of physiological saline and similarly injected into the tail vein. The mice were examined for death up to 20 hours after the treatment.

[8] = PAF 1.0 μg/kg i.v. alone, 0.5 min
[9] = PAF 1.0 μg/kg i.v. alone, 1 min
[10] = PAF 1.0 μg/kg i.v. alone, 5 min
[11] = PAF 1.0 μg/kg i.v. after pretreatment 10 mg/kg i.v., 0.5 min
[12] = PAF 1.0 μg/kg i.v. after pretreatment 10 mg/kg i.v., 1 min
[13] = PAF 1.0 μg/kg i.v. after pretreatment 10 mg/kg i.v., 5 min

CCCCCCCCCCCCCCCCOCC(COP(=O)([O-])OCC[N+](C)(C)C)OC(C)=O (stereo not shown) [PAF, 1-O-alkyl-2-acetyl-sn-glyceryl-3-phosphorylcholine]
amount of stenosis taking a complete stenosis as 100% ([1]; PAF 0.3 μg/kg i.v., control group pretreated with saline, mean±S.D., 6 cases): 72.8±4.3% | decrease of CO in words ([2]; PAF 1.0 μg/kg i.v.): particularly remarkable | heart rate (HR) change in words ([2]; PAF 1.0 μg/kg i.v.): only a slight decrease | time before the preadministration values were recovered ([2]; PAF 1.0 μg/kg i.v.): 60 min | CO (percent of value prior to PAF) [2, 8]: 93 ± 13% | CoF (percent of value prior to PAF) [2, 8]: 75 ± 3% | DBP (percent of value prior to PAF) [2, 8]: 58 ± 3% | HR (percent of value prior to PAF) [2, 8]: 96 ± 8% | LVP (percent of value prior to PAF) [2, 8]: 81 ± 1% | MBP (percent of value prior to PAF) [2, 8]: 62 ± 4% | SBP (percent of value prior to PAF) [2, 8]: 70 ± 5% | max dp/dt (row head is a drawing; percent of value prior to PAF) [2, 8]: 76 ± 8% | CO (percent of value prior to PAF) [2, 9]: 33 ± 3% | CoF (percent of value prior to PAF) [2, 9]: 77 ± 3% | DBP (percent of value prior to PAF) [2, 9]: 47 ± 3% | HR (percent of value prior to PAF) [2, 9]: 95 ± 8% | LVP (percent of value prior to PAF) [2, 9]: 59 ± 7% | MBP (percent of value prior to PAF) [2, 9]: 49 ± 5% | SBP (percent of value prior to PAF) [2, 9]: 52 ± 5% | max dp/dt (row head is a drawing; percent of value prior to PAF) [2, 9]: 50 ± 3% | CO (percent of value prior to PAF) [2, 10]: 35 ± 7% | CoF (percent of value prior to PAF) [2, 10]: 56 ± 2% | DBP (percent of value prior to PAF) [2, 10]: 67 ± 12% | HR (percent of value prior to PAF) [2, 10]: 89 ± 3% | LVP (percent of value prior to PAF) [2, 10]: 62 ± 6% | MBP (percent of value prior to PAF) [2, 10]: 63 ± 11% | SBP (percent of value prior to PAF) [2, 10]: 59 ± 9% | max dp/dt (row head is a drawing; percent of value prior to PAF) [2, 10]: 54 ± 7% | platelet aggregation activity in words [3]: greater activity at lower concentrations | activity in respiratory stenosis assay in words [4]: highest activity of all the known compounds

CCCCCCCCCCCCCCCCCCNC(=O)OCC(COP(=O)([O-])OCC[n+]1ccsc1)OC (stereo not shown) [Production Example 2, 3-(N-Octadecylcarbamoyloxy)-2-methoxypropyl 2-thiazolioethyl phosphate]
inhibition at 30 µM [5]: 100% | suppression of the airway stenosis response by PAF ([1]; 0.3 mg/kg i.v.): 49% | suppression of the airway stenosis response by PAF ([1]; 1 mg/kg i.v.): 82% | CO (percent of value prior to PAF) [2, 11]: 107 ± 4% | CoF (percent of value prior to PAF) [2, 11]: 109 ± 4% | DBP (percent of value prior to PAF) [2, 11]: 78 ± 5% | HR (percent of value prior to PAF) [2, 11]: 109 ± 2% | LVP (percent of value prior to PAF) [2, 11]: 92 ± 3% | MBP (percent of value prior to PAF) [2, 11]: 87 ± 7% | SBP (percent of value prior to PAF) [2, 11]: 90 ± 3% | max dp/dt (row head is a drawing; percent of value prior to PAF) [2, 11]: 94 ± 7% | CO (percent of value prior to PAF) [2, 12]: 99 ± 2% | CoF (percent of value prior to PAF) [2, 12]: 103 ± 3% | DBP (percent of value prior to PAF) [2, 12]: 99 ± 1% | HR (percent of value prior to PAF) [2, 12]: 105 ± 1% | LVP (percent of value prior to PAF) [2, 12]: 97 ± 3% | MBP (percent of value prior to PAF) [2, 12]: 99 ± 1% | SBP (percent of value prior to PAF) [2, 12]: 99 ± 1% | max dp/dt (row head is a drawing; percent of value prior to PAF) [2, 12]: 98 ± 2% | CO (percent of value prior to PAF) [2, 13]: 103 ± 5% | CoF (percent of value prior to PAF) [2, 13]: 97 ± 3% | DBP (percent of value prior to PAF) [2, 13]: 101 ± 2% | HR (percent of value prior to PAF) [2, 13]: 103 ± 3% | LVP (percent of value prior to PAF) [2, 13]: 100 ± 1% | MBP (percent of value prior to PAF) [2, 13]: 101 ± 2% | SBP (percent of value prior to PAF) [2, 13]: 102 ± 3% | max dp/dt (row head is a drawing; percent of value prior to PAF) [2, 13]: 102 ± 3% | Max. hypotensive response after drug administration (-ΔmmHg) ([6]; listed as Compound (IA)): 15 ± 3 mmHg | Max. hypotensive response after drug administration (-ΔmmHg) ([6]; listed as compound (IA)): 15 mmHg | Mortality within 20 hrs. [7]: 14% | No. of deaths within 20 hrs. after drug administration, Deaths/survivals [7]: 1/7
